Values of other authors as cited in US20060063833A1, “Ready-to-use oxaliplatin solutions” (priority 2004, published 2006).

Columns and labels:
[1] = at least at concentrations below 1 mg/ml

O=C1[O][Pt-2]2([NH2+]C3CCCC[C@H]3[NH2+]2)[O]C1=O (stereo partly drawn) [Oxaliplatin, cis-oxalato-(trans-1,2-cyclohexanediamine)-platinum(II)]
stability in water [1]: not very stable | solubility in ethanol (ethanol): practically insoluble | solubility in methanol (methanol): scarcely soluble | solubility in water (water): soluble
